Values after ≈ are worked out from the molar mass of the structure shown.
Legend:
[1] = (§1) Toxicity against Artemia salina after 24 hrs; format: organism-based; details: in vivo
Artemia salina = test: as §1; format: organism-based; details: in vivo, 24 h

Row | Compound | LC50 at 24 h [1] [µg/mL] | Activity (Artemia salina)
1 | C=CC(C)(O)/C=C/C=C(\C)CC/C=C(\C)CC(=O)CC(C)C (centres undefined) | 3 (≈ 9.85 µM) | 
2 | C=CC(C)(O)/C=C/C=C(\C)CC/C=C(\C)CCC=C(C)C (centres undefined) |  | Toxic
3 | C=CC(C)(O)/C=C/C=C(\C)CCC/C(C)=C\C(=O)C=C(C)C (centres undefined) | 163 (≈ 539 µM) | 
4 | C=CC(C)(O)/C=C/C=C(\C)CC/C=C(\C)CC(=O)C=C(C)C (centres undefined) [STYXENOL A] | 154 (≈ 509 µM) | 

— ChEMBL document CHEMBL1149743, “Linear diterpenes from the Caribbean sponge Myrmekioderma styx” (J Nat Prod, 1992)
